Tests used:
Experiment in all cases: Glasshouse herbicide test, pre- and post-emergence
Assay type in all cases: in vivo
[1] = system: Echinochloa crus-galli (ECHCG); settings: 250 g/h, evaluated after 13 days, five-point scale; for percentage damage caused to the plant, ECHCG POST: post-emergence; for percentage damage caused to the plant, ECHCG PRE: pre-emergence
Method in brief: (§1)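 Pots were sprayed 1 day (pre-emergence) or 8 days (post-emergence) after sowing at 250 g/h, formulated in acetone/water 50:50 with 0.5% Tween 20. Plants were grown in a glasshouse at 24/16 °C day/night, 14 h light and 65% humidity, then damage was scored after 13 days on a five-point scale (5=80-100% … 1=0-19%).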

[2] = system: Lolium perenne (LOLPE); settings: 250 g/h, evaluated after 13 days, five-point scale; for percentage damage caused to the plant, LOLPE POST: post-emergence; for percentage damage caused to the plant, LOLPE PRE: pre-emergence
Method in brief: as §1

[3] = system: Alopecurus myosuroides (ALOMY); settings: 250 g/h, evaluated after 13 days, five-point scale; for percentage damage caused to the plant, ALOMY POST: post-emergence; for percentage damage caused to the plant, ALOMY PRE: pre-emergence
Method in brief: as §1

[4] = system: Avena fatua (AVEFA); settings: 250 g/h, evaluated after 13 days, five-point scale; for percentage damage caused to the plant, AVEFA POST: post-emergence; for percentage damage caused to the plant, AVEFA PRE: pre-emergence
Method in brief: as §1

[5] = system: Setaria faberi (SETFA); settings: 250 g/h, evaluated after 13 days, five-point scale; for percentage damage caused to the plant, SETFA POST: post-emergence; for percentage damage caused to the plant, SETFA PRE: pre-emergence
Method in brief: as §1

SMILES: CC#Cc1cc(C)c(C2C(=O)CC3(CCC(NC(=O)c4nccnc4C)CC3)CC2=O)c(C)c1 (stereo not drawn) [Compound 2.015]
- percentage damage caused to the plant, ECHCG POST [1]: 5 (5=80-100%)
- percentage damage caused to the plant, ECHCG PRE [1]: 5 (5=80-100%)
- percentage damage caused to the plant, LOLPE POST [2]: 5 (5=80-100%)
- percentage damage caused to the plant, LOLPE PRE [2]: 5 (5=80-100%)
- percentage damage caused to the plant, ALOMY POST [3]: 5 (5=80-100%)
- percentage damage caused to the plant, ALOMY PRE [3]: 4 (4=60-79%)
- percentage damage caused to the plant, AVEFA POST [4]: 5 (5=80-100%)
- percentage damage caused to the plant, AVEFA PRE [4]: 5 (5=80-100%)
- percentage damage caused to the plant, SETFA POST [5]: 5 (5=80-100%)
- percentage damage caused to the plant, SETFA PRE [5]: 5 (5=80-100%)

SMILES: CC#Cc1cc(C)c(C2C(=O)CC3(CCC(NC(=O)c4cnco4)CC3)CC2=O)c(C)c1 (stereo not drawn) [Compound 2.016]
- percentage damage caused to the plant, ECHCG POST [1]: 5 (5=80-100%)
- percentage damage caused to the plant, ECHCG PRE [1]: 5 (5=80-100%)
- percentage damage caused to the plant, LOLPE POST [2]: 5 (5=80-100%)
- percentage damage caused to the plant, LOLPE PRE [2]: 5 (5=80-100%)
- percentage damage caused to the plant, ALOMY POST [3]: 4 (4=60-79%)
- percentage damage caused to the plant, ALOMY PRE [3]: 3 (3=40-59%)
- percentage damage caused to the plant, AVEFA POST [4]: 5 (5=80-100%)
- percentage damage caused to the plant, AVEFA PRE [4]: 4 (4=60-79%)
- percentage damage caused to the plant, SETFA POST [5]: 5 (5=80-100%)
- percentage damage caused to the plant, SETFA PRE [5]: 5 (5=80-100%)

SMILES: CC#Cc1cc(C)c(C2C(=O)CC3(CCC(NC(=O)[C@H](C)O)CC3)CC2=O)c(C)c1 (stereo partly drawn) [Compound 2.017]
- percentage damage caused to the plant, ECHCG POST [1]: 5 (5=80-100%)
- percentage damage caused to the plant, ECHCG PRE [1]: 5 (5=80-100%)
- percentage damage caused to the plant, LOLPE POST [2]: 5 (5=80-100%)
- percentage damage caused to the plant, LOLPE PRE [2]: 4 (4=60-79%)
- percentage damage caused to the plant, ALOMY POST [3]: 5 (5=80-100%)
- percentage damage caused to the plant, ALOMY PRE [3]: 4 (4=60-79%)
- percentage damage caused to the plant, AVEFA POST [4]: 5 (5=80-100%)
- percentage damage caused to the plant, AVEFA PRE [4]: 4 (4=60-79%)
- percentage damage caused to the plant, SETFA POST [5]: 5 (5=80-100%)
- percentage damage caused to the plant, SETFA PRE [5]: 5 (5=80-100%)

SMILES: CC#Cc1cc(C)c(C2C(=O)CC3(CCC(NC(=O)c4ccnc(F)c4)CC3)CC2=O)c(C)c1 (stereo not drawn) [Compound 2.018]
- percentage damage caused to the plant, ECHCG POST [1]: 5 (5=80-100%)
- percentage damage caused to the plant, ECHCG PRE [1]: 5 (5=80-100%)
- percentage damage caused to the plant, LOLPE POST [2]: 5 (5=80-100%)
- percentage damage caused to the plant, LOLPE PRE [2]: 5 (5=80-100%)
- percentage damage caused to the plant, ALOMY POST [3]: 5 (5=80-100%)
- percentage damage caused to the plant, ALOMY PRE [3]: 4 (4=60-79%)
- percentage damage caused to the plant, AVEFA POST [4]: 5 (5=80-100%)
- percentage damage caused to the plant, AVEFA PRE [4]: 5 (5=80-100%)
- percentage damage caused to the plant, SETFA POST [5]: 5 (5=80-100%)
- percentage damage caused to the plant, SETFA PRE [5]: 5 (5=80-100%)

SMILES: CC#Cc1cc(C)c(C2C(=O)CC3(CCC(NC(=O)c4ccccc4)CC3)CC2=O)c(C)c1 (stereo not drawn) [Compound 2.019]
- percentage damage caused to the plant, ECHCG POST [1]: 5 (5=80-100%)
- percentage damage caused to the plant, ECHCG PRE [1]: 5 (5=80-100%)
- percentage damage caused to the plant, LOLPE POST [2]: 5 (5=80-100%)
- percentage damage caused to the plant, LOLPE PRE [2]: 5 (5=80-100%)
- percentage damage caused to the plant, ALOMY POST [3]: 5 (5=80-100%)
- percentage damage caused to the plant, ALOMY PRE [3]: 5 (5=80-100%)
- percentage damage caused to the plant, AVEFA POST [4]: 5 (5=80-100%)
- percentage damage caused to the plant, AVEFA PRE [4]: 5 (5=80-100%)
- percentage damage caused to the plant, SETFA POST [5]: 5 (5=80-100%)
- percentage damage caused to the plant, SETFA PRE [5]: 5 (5=80-100%)

SMILES: CC#Cc1cc(C)c(C2C(=O)CC3(CCC(NC(=O)COC)CC3)CC2=O)c(C)c1 (stereo not drawn) [Compound 2.020]
- percentage damage caused to the plant, ECHCG POST [1]: 5 (5=80-100%)
- percentage damage caused to the plant, ECHCG PRE [1]: 5 (5=80-100%)
- percentage damage caused to the plant, LOLPE POST [2]: 5 (5=80-100%)
- percentage damage caused to the plant, LOLPE PRE [2]: 5 (5=80-100%)
- percentage damage caused to the plant, ALOMY POST [3]: 5 (5=80-100%)
- percentage damage caused to the plant, ALOMY PRE [3]: 5 (5=80-100%)
- percentage damage caused to the plant, AVEFA POST [4]: 5 (5=80-100%)
- percentage damage caused to the plant, AVEFA PRE [4]: 5 (5=80-100%)
- percentage damage caused to the plant, SETFA POST [5]: 5 (5=80-100%)
- percentage damage caused to the plant, SETFA PRE [5]: 5 (5=80-100%)
